Assay [1] addresses T1, BCR-FMS BaF3 cells (Homo sapiens, UniProt P07333).
T1 construct: fused on or other part: P11274 (Breakpoint cluster region protein)
T1 sequence (P07333 582-910): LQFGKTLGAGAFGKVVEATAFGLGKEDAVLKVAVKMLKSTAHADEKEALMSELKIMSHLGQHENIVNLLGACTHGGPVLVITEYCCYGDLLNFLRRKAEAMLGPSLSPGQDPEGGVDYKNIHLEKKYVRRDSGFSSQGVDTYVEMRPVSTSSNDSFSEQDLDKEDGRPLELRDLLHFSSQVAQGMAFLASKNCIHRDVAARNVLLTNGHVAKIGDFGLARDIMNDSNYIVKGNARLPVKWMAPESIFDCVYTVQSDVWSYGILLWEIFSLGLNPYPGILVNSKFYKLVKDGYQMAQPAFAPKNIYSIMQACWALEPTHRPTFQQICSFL
Kind of assay: BaF3 BCR-FMS cell proliferation assay (ATPlite). In kind it is cell-based. Particulars: read-out: Inhibition of Cell Proliferation IC50, BCR/BaF3 Fms. The gist of the method: (§1)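 For these proliferation assays, engineered BaF3 cells (10,000/well, IL-3 withdrawn) and MV-4-11 cells (25,000/well) received compound serially diluted 1:3 from 10 μM over 8 points, with DMSO as control. After three days of culture, ATP content was measured by luminescence to derive IC50.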

Assay [2] deals with Fms kinase (Homo sapiens, UniProt P07333). Kind of assay: Fms kinase biochemical activity assay (AlphaScreen, biotin-(E4Y)10 phosphorylation). Particulars: 100 μM ATP; read-out: Biochemical Inhibition IC50 Fms. The gist of the method:
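AlphaScreen read-out (PY20 acceptor, streptavidin donor beads, EDTA stop) of biotin-(E4Y)10 phosphorylation, with IC50 taken from the concentration–signal curve. Reaction: 30 nM substrate, 100 μM ATP, 1 ng/well Fms, Hepes pH 7.5 with Mg2+/Mn2+, 5% DMSO, 20 min at 30 °C.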

The target in assay [3] is T2, BCR-NTRK3 BaF3 cells (Homo sapiens, UniProt Q16288).
T2 construct: fused on or other part: P11274 (Breakpoint cluster region protein)
T2 sequence (Q16288 whole entry, the tested form may be a part): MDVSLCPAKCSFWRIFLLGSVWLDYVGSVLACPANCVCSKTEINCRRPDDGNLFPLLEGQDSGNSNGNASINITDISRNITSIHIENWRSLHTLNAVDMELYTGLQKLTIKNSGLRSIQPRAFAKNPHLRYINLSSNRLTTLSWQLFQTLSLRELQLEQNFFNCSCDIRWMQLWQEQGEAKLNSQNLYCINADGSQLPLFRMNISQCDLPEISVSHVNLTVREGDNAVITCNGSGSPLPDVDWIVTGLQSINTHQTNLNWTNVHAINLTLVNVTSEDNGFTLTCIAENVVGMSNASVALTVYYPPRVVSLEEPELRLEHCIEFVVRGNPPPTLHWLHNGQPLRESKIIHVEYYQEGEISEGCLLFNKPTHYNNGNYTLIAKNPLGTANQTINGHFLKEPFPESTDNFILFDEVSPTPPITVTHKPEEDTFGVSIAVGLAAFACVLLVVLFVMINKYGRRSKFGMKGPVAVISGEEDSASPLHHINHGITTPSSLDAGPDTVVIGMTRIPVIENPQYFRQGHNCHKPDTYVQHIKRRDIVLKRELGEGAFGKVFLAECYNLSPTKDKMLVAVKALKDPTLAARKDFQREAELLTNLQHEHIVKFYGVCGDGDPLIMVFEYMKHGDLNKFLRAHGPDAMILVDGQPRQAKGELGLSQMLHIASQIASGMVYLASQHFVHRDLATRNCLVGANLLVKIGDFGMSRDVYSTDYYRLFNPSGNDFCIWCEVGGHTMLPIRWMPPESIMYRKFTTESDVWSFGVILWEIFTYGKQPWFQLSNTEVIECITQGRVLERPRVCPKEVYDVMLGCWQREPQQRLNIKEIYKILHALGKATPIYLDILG
Kind of assay: BaF3 BCR-NTRK3 cell proliferation assay (ATPlite). The assay is classed as cell-based. Conditions: read-out: Inhibition of Cell Proliferation IC50, BCR/BaF3 TrkC. The gist of the method:
as §1

pIC50: −log10 of the molar value.

Fms kinase, sequence (P07333 20-972): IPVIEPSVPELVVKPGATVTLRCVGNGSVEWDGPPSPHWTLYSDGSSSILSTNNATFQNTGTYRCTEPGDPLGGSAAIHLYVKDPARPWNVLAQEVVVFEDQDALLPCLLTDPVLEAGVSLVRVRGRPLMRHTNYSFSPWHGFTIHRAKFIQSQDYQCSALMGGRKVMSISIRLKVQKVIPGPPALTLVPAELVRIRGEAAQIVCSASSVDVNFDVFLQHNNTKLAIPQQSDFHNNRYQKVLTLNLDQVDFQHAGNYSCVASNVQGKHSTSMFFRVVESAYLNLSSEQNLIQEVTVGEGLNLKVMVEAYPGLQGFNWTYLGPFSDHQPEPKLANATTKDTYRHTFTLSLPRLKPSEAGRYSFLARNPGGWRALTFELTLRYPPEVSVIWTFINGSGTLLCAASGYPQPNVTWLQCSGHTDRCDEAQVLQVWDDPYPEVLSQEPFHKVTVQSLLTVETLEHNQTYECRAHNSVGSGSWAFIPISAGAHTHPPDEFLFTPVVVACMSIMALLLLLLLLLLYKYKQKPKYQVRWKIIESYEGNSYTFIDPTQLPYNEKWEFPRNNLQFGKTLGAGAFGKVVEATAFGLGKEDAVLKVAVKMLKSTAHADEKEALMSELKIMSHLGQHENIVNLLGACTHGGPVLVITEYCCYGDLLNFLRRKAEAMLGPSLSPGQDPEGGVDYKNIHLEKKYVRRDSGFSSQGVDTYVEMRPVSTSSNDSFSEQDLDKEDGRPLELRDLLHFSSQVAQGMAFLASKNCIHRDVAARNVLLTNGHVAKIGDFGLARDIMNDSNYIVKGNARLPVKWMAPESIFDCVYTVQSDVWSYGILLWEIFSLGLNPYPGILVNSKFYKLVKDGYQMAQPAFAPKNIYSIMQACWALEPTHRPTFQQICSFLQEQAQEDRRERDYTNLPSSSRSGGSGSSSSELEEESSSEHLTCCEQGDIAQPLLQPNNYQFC

For `COCCCNc1ncnc2[nH]cc(C(=O)c3ccc(Nc4ccc(OC)nc4)nc3F)c12` [Compound P-4079, [2-fluoro-6-[(6-methoxy-3-pyridyl)amino]-3-pyridyl]-[4-(3-methoxypropylamino)-7H-pyrrolo[2,3-d]pyrimidin-5-yl]methanone], the values for the pIC50 in assay [1], in assay [2] and in assay [3] were more than 7.00, more than 8.00 and more than 8.00, respectively.

For `CCCCNc1ncnc2[nH]cc(C(=O)c3ccc(Nc4ccc(OC)nc4)nc3F)c12` [Compound P-4080, [4-(butylamino)-7H-pyrrolo[2,3-d]pyrimidin-5-yl]-[2-fluoro-6-[(6-methoxy-3-pyridyl)amino]-3-pyridyl]methanone], the pIC50 in assay [1] is more than 7.00; in assay [2], more than 8.00; in assay [3], more than 8.00.

As for `CCNc1ncnc2[nH]cc(C(=O)c3ccc(Nc4ccc(OC)nc4)nc3F)c12` [Compound P-4081, [4-(ethylamino)-7H-pyrrolo[2,3-d]pyrimidin-5-yl]-[2-fluoro-6-[(6-methoxy-3-pyridyl)amino]-3-pyridyl]methanone], the pIC50 in assay [1], in assay [2] and in assay [3] was more than 8.00 in each case.

Consider `COc1ccc(Nc2ccc(C(=O)c3c[nH]c4ncnc(NC5CCCCC5)c34)c(F)n2)cn1` [Compound P-4082, [4-(cyclohexylamino)-7H-pyrrolo[2,3-d]pyrimidin-5-yl]-[2-fluoro-6-[(6-methoxy-3-pyridyl)amino]-3-pyridyl]methanone], for which the results for the pIC50 in assay [1], in assay [2] and in assay [3] were more than 8.00, more than 7.00 and more than 8.00, respectively.

As for `CNc1ncnc2[nH]cc(C(=O)c3ccc(Nc4ccc(OC)nc4)nc3F)c12` [Compound P-4083, [2-fluoro-6-[(6-methoxy-3-pyridyl)amino]-3-pyridyl]-[4-(methylamino)-7H-pyrrolo[2,3-d]pyrimidin-5-yl]methanone], the pIC50 in assay [1] is more than 7.00; in assay [2] it was more than 8.00; in assay [3], more than 8.00.

`COc1ccc(Nc2ccc(C(=O)c3c[nH]c4ncnc(NCC(F)(F)F)c34)c(F)n2)cn1` [Compound P-4084, [2-fluoro-6-[(6-methoxy-3-pyridyl)amino]-3-pyridyl]-[4-(2,2,2-trifluoroethylamino)-7H-pyrrolo[2,3-d]pyrimidin-5-yl]methanone]: the pIC50 in assay [1], in assay [2] and in assay [3] was more than 8.00 in each case.

For `CNc1ncnc2[nH]cc(C(=O)c3ccc(Nc4ccc(OC)nc4)nc3OC)c12` [Compound P-4085, [2-methoxy-6-[(6-methoxy-3-pyridyl)amino]-3-pyridyl]-[4-(methylamino)-7H-pyrrolo[2,3-d]pyrimidin-5-yl]methanone], the pIC50 in assay [1] is more than 6.00; in assay [2], more than 8.00; in assay [3], more than 7.00.

As to `O=C(c1ccc(NC2CCC(F)(F)CC2)nc1)c1c[nH]c2ncnc(NCC(F)(F)F)c12` [Compound P-4087, [6-[(4,4-difluorocyclohexyl)amino]-3-pyridyl]-[4-(2,2,2-trifluoroethylamino)-7H-pyrrolo[2,3-d]pyrimidin-5-yl]methanone], the pIC50 in assay [1] is more than 6.00; in assay [2], more than 7.00; in assay [3] it was more than 8.00.

As for `O=C(c1ccc(NC2CCC(F)(F)CC2)nc1)c1c[nH]c2ncnc(NC3CC3)c12` [Compound P-4088, [4-(cyclopropylamino)-7H-pyrrolo[2,3-d]pyrimidin-5-yl]-[6-[(4,4-difluorocyclohexyl)amino]-3-pyridyl]methanone], the pIC50 in assay [1] is more than 7.00; in assay [2], more than 7.00; in assay [3], more than 8.00.

For `CNc1ncnc2[nH]cc(C(=O)c3ccc(NC4CCC(F)(F)CC4)nc3)c12` [Compound P-4089, [6-[(4,4-difluorocyclohexyl)amino]-3-pyridyl]-[4-(methylamino)-7H-pyrrolo[2,3-d]pyrimidin-5-yl]methanone], the pIC50 in assay [1] is more than 7.00; in assay [2] it was more than 7.00; in assay [3], more than 8.00.

As for `O=C(c1ccc(Nc2ccc(C3CC3)nc2)nc1F)c1c[nH]c2ncnc(NCC(F)(F)F)c12` [Compound P-4090, [6-[(6-cyclopropyl-3-pyridyl)amino]-2-fluoro-3-pyridyl]-[4-(2,2,2-trifluoroethylamino)-7H-pyrrolo[2,3-d]pyrimidin-5-yl]methanone], the figures for the pIC50 in assay [1], in assay [2] and in assay [3] were more than 7.00, more than 7.00 and more than 8.00, respectively.

`O=C(c1ccc(Nc2ccc(C(F)(F)F)nc2)nc1F)c1c[nH]c2ncnc(NC3CC3)c12` [Compound P-4091, [4-(cyclopropylamino)-7H-pyrrolo[2,3-d]pyrimidin-5-yl]-[2-fluoro-6-[[6-(trifluoromethyl)-3-pyridyl]amino]-3-pyridyl]methanone]: the pIC50 in assay [1] was more than 8.00; in assay [2] it was more than 7.00; in assay [3] it was more than 8.00.

As to `CNc1ncnc2[nH]cc(C(=O)c3ccc(Nc4ccc(C(F)(F)F)nc4)nc3F)c12` [Compound P-4092, [2-fluoro-6-[[6-(trifluoromethyl)-3-pyridyl]amino]-3-pyridyl]-[4-(methylamino)-7H-pyrrolo[2,3-d]pyrimidin-5-yl]methanone], the pIC50 in assay [1], in assay [2] and in assay [3] was more than 8.00 each time.

Regarding `O=C(c1ccc(Nc2ccc(C3CC3)nc2)nc1F)c1c[nH]c2ncnc(NC3CC3)c12` [Compound P-4093, [4-(cyclopropylamino)-7H-pyrrolo[2,3-d]pyrimidin-5-yl]-[6-[(6-cyclopropyl-3-pyridyl)amino]-2-fluoro-3-pyridyl]methanone], the pIC50 in assay [1], in assay [2] and in assay [3] was more than 8.00 throughout.

Turning to `CNc1ncnc2[nH]cc(C(=O)c3ccc(Nc4ccc(C5CC5)nc4)nc3F)c12` [Compound P-4094, [6-[(6-cyclopropyl-3-pyridyl)amino]-2-fluoro-3-pyridyl]-[4-(methylamino)-7H-pyrrolo[2,3-d]pyrimidin-5-yl]methanone], the pIC50 in assay [1] was more than 7.00; in assay [2], more than 8.00; in assay [3], more than 8.00.

`CCc1ccc(Nc2ccc(C(=O)c3c[nH]c4ncnc(NC5CCC5)c34)c(F)n2)cn1` [Compound P-4095, [4-(cyclobutylamino)-7H-pyrrolo[2,3-d]pyrimidin-5-yl]-[6-[(6-ethyl-3-pyridyl)amino]-2-fluoro-3-pyridyl]methanone]: the pIC50 in assay [1], in assay [2] and in assay [3] was more than 8.00 each time.

For the compound `COc1cncc(Nc2ccc(C(=O)c3c[nH]c4ncnc(NCC(F)(F)F)c34)c(F)n2)c1` [Compound P-4103, [2-fluoro-6-[(5-methoxy-3-pyridyl)amino]-3-pyridyl]-[4-(2,2,2-trifluoroethylamino)-7H-pyrrolo[2,3-d]pyrimidin-5-yl]methanone], the pIC50 in assay [1] is more than 7.00; in assay [2], more than 6.00; in assay [3], less than 6.00.

Consider `COc1cncc(Nc2ccc(C(=O)c3c[nH]c4ncnc(NC5CCCCC5)c34)c(F)n2)c1` [Compound P-4104, [4-(cyclohexylamino)-7H-pyrrolo[2,3-d]pyrimidin-5-yl]-[2-fluoro-6-[(5-methoxy-3-pyridyl)amino]-3-pyridyl]methanone], for which the pIC50 in assay [1] is more than 7.00; in assay [2] it was more than 6.00; in assay [3] it was more than 7.00.

For the origin of these results see US8901118B2, “Compounds and methods for kinase modulation, and indications therefor” (Plexxikon Inc., priority 2010, dated 2014).
